Test [1] deals with T1, Neuropeptide Y receptor type 5 (Mus musculus, UniProt O70342).
T1 sequence (O70342 whole entry): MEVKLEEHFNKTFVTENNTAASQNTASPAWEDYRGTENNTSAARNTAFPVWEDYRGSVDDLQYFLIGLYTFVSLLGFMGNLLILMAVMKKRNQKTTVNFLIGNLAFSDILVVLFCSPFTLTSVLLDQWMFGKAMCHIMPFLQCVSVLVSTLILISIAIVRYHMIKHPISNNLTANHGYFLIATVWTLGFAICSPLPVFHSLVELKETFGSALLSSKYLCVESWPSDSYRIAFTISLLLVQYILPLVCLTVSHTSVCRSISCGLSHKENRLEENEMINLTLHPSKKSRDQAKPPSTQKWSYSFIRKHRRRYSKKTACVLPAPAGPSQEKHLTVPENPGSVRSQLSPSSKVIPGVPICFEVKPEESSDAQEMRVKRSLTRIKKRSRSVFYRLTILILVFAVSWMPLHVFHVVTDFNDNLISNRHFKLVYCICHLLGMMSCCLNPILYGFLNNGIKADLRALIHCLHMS
Put plainly: Inhibitory concentration against Neuropeptide Y receptor type 5 in mouse. It counts as organism-based.

Test [2] addresses T1, Neuropeptide Y receptor type 5. Kind of test: Inhibitory concentration against Neuropeptide Y receptor type 5 in mouse; Inactive.

The structures appear in SMILES notation.

In the case of `O=C(c1cnc(Nc2ccc(Cl)cc2)s1)c1ccccc1F`, in test [1], the concentration for half-maximal inhibition (IC50) amounted to 1670 nM.

With `Cc1cc(C(=O)c2cnc(Nc3cccc(C#N)c3)s2)c(C)s1`, the half-maximal inhibitory concentration (IC50) in test [1] is 14 nM.

Regarding `O=C(c1cnc(Nc2cccc(C(F)(F)F)c2)s1)c1ccccc1C(F)(F)F`, the IC50 in test [1] was 138 nM.

In test [1], `COc1ccc(C(=O)c2cnc(Nc3cccc(C#N)c3)s2)cc1` came in with an IC50 of 2230 nM.

In test [1], `Cc1ccccc1C(=O)c1cnc(Nc2cccc(C#N)c2)s1` had an IC50 of 4.2 nM.

In the case of `CCc1ccccc1C(=O)c1cnc(Nc2cccc(C#N)c2)s1`, the half-inhibitory concentration (IC50) in test [1] is 2.8 nM.

`Cc1cc(C(=O)c2cnc(Nc3cccc(C(F)(F)F)c3)s2)c(C)s1` had an IC50 in test [1] of 395 nM.

Regarding `Cc1ccccc1C(=O)c1cnc(Nc2cccc(C(F)(F)F)c2)s1`, it took 63 nM to reach half-maximal inhibition in test [1] (IC50).

On to `N#Cc1cccc(Nc2ncc(C(=O)c3ccccc3F)s2)c1`, for which, in test [1], the IC50 was 19 nM.

Turning to `CCc1ccccc1C(=O)c1cnc(Nc2cccc(C(F)(F)F)c2)s1`, in test [1], the half-inhibitory concentration (IC50) amounted to 32 nM.

Consider `O=C(c1cccc(F)c1)c1cnc(Nc2cccc(C(F)(F)F)c2)s1`, for which the IC50 in test [1] was found to be 885 nM.

`N#Cc1cccc(Nc2ncc(C(=O)c3ccccc3C(F)(F)F)s2)c1` displayed an IC50 in test [1] of 20 nM.

Turning to `COc1cccc(Nc2ncc(C(=O)c3ccccc3F)s2)c1`, in test [1], inhibition was half-maximal at 1000 nM (IC50).

For the compound `O=C(c1cnc(Nc2cc(Cl)cc(Cl)c2)s1)c1ccccc1F`, the IC50 result in test [2] is “Not Active”.

(Values after ChEMBL document CHEMBL1142038, “Novel and potent NPY5 receptor antagonists derived from virtual screening and iterative parallel chemistry design” (Bioorg Med Chem Lett, 2005).)
